Source: patent US20190116791A1, “USE OF SAFENERS WITH PPO INHIBITOR HERBICIDES” (priority 2016, published 2019)
“And” between values parts separate entries of the source, which are not always exact repeats. Equal values may be shown once.

How the values were obtained:
[1] = test system: wheat specie “Yellowstone”; test: Percent wheat injury, visual rating 0-100%, greenhouse, post-emergence spray; settings: for Percent wheat injury 3 DAT / Percent wheat injury 7 DAT / Percent wheat injury 14 DAT / Injury: Yellowstone; for Injury / Percent injury on wheat, Yellowstone 3 DAT / Percent injury on wheat, Yellowstone 7 DAT / Percent injury on wheat, Yellowstone 14 DAT: Table 4; for Injury: time not stated; for Percent wheat injury, YELLOWSTONE (1) 3 DAT / Percent wheat injury, YELLOWSTONE (1) 7 DAT / Percent wheat injury, YELLOWSTONE (1) 14 DAT: Table 7 Test 1; for Percent wheat injury, YELLOWSTONE (1) 3 DAT / Percent wheat injury, YELLOWSTONE (1) 7 DAT / Percent wheat injury, YELLOWSTONE (1) 14 DAT / Percent wheat injury, YELLOWSTONE (2) 3 DAT / Percent wheat injury, YELLOWSTONE (2) 7 DAT / Percent wheat injury, YELLOWSTONE (2) 14 DAT: tank-mix; for Percent wheat injury, YELLOWSTONE (2) 3 DAT / Percent wheat injury, YELLOWSTONE (2) 7 DAT / Percent wheat injury, YELLOWSTONE (2) 14 DAT: Table 7 Test 2
[2] = test system: Morningglory; test: Percent weed control, 0 to 100% rating system; type: in vivo; settings: Table 6
Experimental: (§1) Percent weed control was determined by a method similar to the 0 to 100% rating system as described above and reproduced below for easy reference. The same weed control rating system also can be found such as in “Research Methods in Weed Science,” 2nd ed., B. Truelove, Ed.; Southern Weed Science Society; Auburn University, Auburn, Ala., 1977.

[3] = test system: Velvetleaf; test: Percent weed control, 0 to 100% rating system; type: in vivo; settings: Table 6
Experimental: as §1

[4] = test system: wheat variety “Jagger”; test: Percent wheat injury, visual rating 0-100%, greenhouse, post-emergence spray; settings: for Injury / Percent injury on wheat, Jagger 3 DAT / Percent injury on wheat, Jagger 7 DAT / Percent injury on wheat, Jagger 14 DAT: Table 4; for Injury: Jagger, time not stated; for Percent wheat injury, JAGGER 3 DAT / Percent wheat injury, JAGGER 7 DAT / Percent wheat injury, JAGGER 14 DAT: Table 7 Test 1, tank-mix
[5] = Table 2, carfentrazone-ethyl 25 g ai/ha
[6] = Table 3, carfentrazone-ethyl 50 g ai/ha
[7] = carfentrazone-ethyl at 50 g, safened treatment as tank-mix or premix
[8] = fluthiacet-methyl 5.6 g ai/ha, 3 DAT
[9] = fluthiacet-methyl 11.2 g ai/ha, 3 DAT

CCOC(=O)C(Cl)Cc1cc(-n2nc(C)n(C(F)F)c2=O)c(F)cc1Cl (centres unmarked) [Carfentrazone-ethyl, carfentrazone-ethyl]
Percent wheat injury 3 DAT ([1]; Table 2, carfentrazone-ethyl 25 g ai/ha, 3 DAT): 34% and 34 (A) %
Percent wheat injury 3 DAT ([1]; Table 2, carfentrazone-ethyl 25 g ai/ha, 3 DAT, listed as carfentrazone-ethyl): 34%
Percent wheat injury 7 DAT [1, 5]: 28 (A) %
Percent wheat injury 14 DAT [1, 5]: 15 (A) %
Percent wheat injury 3 DAT ([1]; Table 3, carfentrazone-ethyl 50 g ai/ha, 3 DAT): 43% and 43 (A) %
Percent wheat injury 7 DAT [1, 6]: 36 (A) %
Percent wheat injury 14 DAT [1, 6]: 20 (A) %
Injury ([1]; carfentrazone-ethyl at 25 g): > 35%
Injury [1, 7]: > 40%
Percent injury on wheat, Yellowstone 3 DAT ([1]; carfentrazone-ethyl 25 g ai/ha, 3 DAT): 38%
Percent injury on wheat, Yellowstone 7 DAT ([1]; carfentrazone-ethyl 25 g ai/ha): 34%
Percent injury on wheat, Yellowstone 14 DAT ([1]; carfentrazone-ethyl 25 g ai/ha): 24%
Percent injury on wheat, Yellowstone 3 DAT ([1]; carfentrazone-ethyl 50 g ai/ha, 3 DAT): 44%
Percent injury on wheat, Yellowstone 7 DAT ([1]; carfentrazone-ethyl 50 g ai/ha): 39%
Percent injury on wheat, Yellowstone 14 DAT ([1]; carfentrazone-ethyl 50 g ai/ha): 28%
Percent weed control, Morningglory 3 DAT ([2]; carfentrazone-ethyl 25 g ai/ha): 90 (A) %
Percent weed control, Morningglory 7 DAT ([2]; carfentrazone-ethyl 25 g ai/ha): 100 (A) %
Percent weed control, Morningglory 3 DAT ([2]; carfentrazone-ethyl 50 g ai/ha): 90 (A) %
Percent weed control, Morningglory 7 DAT ([2]; carfentrazone-ethyl 50 g ai/ha): 100 (A) %
Percent weed control, Velvetleaf 3 DAT ([3]; carfentrazone-ethyl 25 g ai/ha): 90 (A) %
Percent weed control, Velvetleaf 7 DAT ([3]; carfentrazone-ethyl 25 g ai/ha): 100%
Percent weed control, Velvetleaf 3 DAT ([3]; carfentrazone-ethyl 50 g ai/ha): 90 (A) %
Percent weed control, Velvetleaf 7 DAT ([3]; carfentrazone-ethyl 50 g ai/ha): 100%
Injury ([4]; carfentrazone-ethyl at 25 g): > 35%
Injury [4, 7]: > 40%
Percent injury on wheat, Jagger 3 DAT ([4]; carfentrazone-ethyl 25 g ai/ha): 36%
Percent injury on wheat, Jagger 7 DAT ([4]; carfentrazone-ethyl 25 g ai/ha): 34%
Percent injury on wheat, Jagger 14 DAT ([4]; carfentrazone-ethyl 25 g ai/ha): 25%
Percent injury on wheat, Jagger 3 DAT ([4]; carfentrazone-ethyl 50 g ai/ha): 43%
Percent injury on wheat, Jagger 7 DAT ([4]; carfentrazone-ethyl 50 g ai/ha): 38%
Percent injury on wheat, Jagger 14 DAT ([4]; carfentrazone-ethyl 50 g ai/ha): 30%

COC(=O)CSc1cc(/N=c2\sc(=O)n3n2CCCC3)c(F)cc1Cl [F-M, fluthiacet-methyl]
Percent wheat injury, YELLOWSTONE (1) 3 DAT [1, 8]: 12%
Percent wheat injury, YELLOWSTONE (1) 7 DAT ([1]; fluthiacet-methyl 5.6 g ai/ha): 12%
Percent wheat injury, YELLOWSTONE (1) 14 DAT ([1]; fluthiacet-methyl 5.6 g ai/ha): 12%
Percent wheat injury, YELLOWSTONE (1) 3 DAT [1, 9]: 36%
Percent wheat injury, YELLOWSTONE (1) 7 DAT ([1]; fluthiacet-methyl 11.2 g ai/ha): 34%
Percent wheat injury, YELLOWSTONE (1) 14 DAT ([1]; fluthiacet-methyl 11.2 g ai/ha): 34%
Percent wheat injury, YELLOWSTONE (2) 3 DAT [1, 8]: 16%
Percent wheat injury, YELLOWSTONE (2) 7 DAT ([1]; fluthiacet-methyl 5.6 g ai/ha): 11%
Percent wheat injury, YELLOWSTONE (2) 14 DAT ([1]; fluthiacet-methyl 5.6 g ai/ha): 12%
Percent wheat injury, YELLOWSTONE (2) 3 DAT [1, 9]: 40%
Percent wheat injury, YELLOWSTONE (2) 7 DAT ([1]; fluthiacet-methyl 11.2 g ai/ha): 36%
Percent wheat injury, YELLOWSTONE (2) 14 DAT ([1]; fluthiacet-methyl 11.2 g ai/ha): 25%
Percent wheat injury, JAGGER 3 DAT ([4]; fluthiacet-methyl 5.6 g ai/ha): 6%
Percent wheat injury, JAGGER 7 DAT ([4]; fluthiacet-methyl 5.6 g ai/ha): 8%
Percent wheat injury, JAGGER 14 DAT ([4]; fluthiacet-methyl 5.6 g ai/ha): 10%
Percent wheat injury, JAGGER 3 DAT ([4]; fluthiacet-methyl 11.2 g ai/ha): 35%
Percent wheat injury, JAGGER 7 DAT ([4]; fluthiacet-methyl 11.2 g ai/ha): 35%
Percent wheat injury, JAGGER 14 DAT ([4]; fluthiacet-methyl 11.2 g ai/ha): 19%

O=C1OC(=O)c2cccc3cccc1c23 [naphthalic anhydride]
wheat injury in the presence of safener(s) ([1]; text on Tables 2 and 3, safener applied with carfentrazone-ethyl, regardless of rate (25 or 50 g), 3 DAT): greater than 25%
